Usually Ki stands for the equilibrium dissociation constant of an inhibitor or competing ligand from its target. Low readings indicate a stronger hold on the target, high ones a looser hold on the target. As usually defined, the IC90 is the concentration needed for an effect of 90%. High values mean a need for much substance, low ones an effect from little substance.

Here are results for 26 compounds from ChEMBL document CHEMBL1159158, “Cyclic urea HIV protease inhibitors containing alkynyl- and alkenyl-tethered heterocycles in the P2 region” (Bioorg Med Chem Lett, 1996).

Bounds are passed on as bounds.

For the first test, the target named is T1, Human immunodeficiency virus type 1 protease (Human immunodeficiency virus 1, UniProt Q72874). As to the kind of experiment: Compound was evaluated for binding affinity towards HIV-Protease enzyme.
Compound `O=C1N(C/C=C/c2cn[nH]c2)[C@H](Cc2ccccc2)[C@H](O)[C@@H](O)[C@@H](Cc2ccccc2)N1C/C=C/c1cn[nH]c1` yielded a Ki of 0.00025 µM.
The same measure, in the same setting: under `O=C1N(C/C=C/c2cn[nH]c2)[C@H](Cc2ccccc2)[C@H](O)[C@@H](O)[C@@H](Cc2ccccc2)N1CC1CC1` stands 0.00041 µM.

The next test concerns the target Human immunodeficiency virus type 1 protease (Human immunodeficiency virus 1) (UniProt Q72874). As to the kind of experiment: Compound was evaluated for its antiviral activity against HIV-Protease in cell based assay.
In turn, `O=C1N(C/C=C/c2cn[nH]c2)[C@H](Cc2ccccc2)[C@H](O)[C@@H](O)[C@@H](Cc2ccccc2)N1C/C=C/c1cn[nH]c1` came in with an IC90 of 0.37 µM.
Same read-out and setting: under `O=C1N(C/C=C/c2cn[nH]c2)[C@H](Cc2ccccc2)[C@H](O)[C@@H](O)[C@@H](Cc2ccccc2)N1CC1CC1` stands 0.82 µM.

A further test concerns the target T1, Human immunodeficiency virus type 1 protease. As to the kind of experiment: Binding affinity to HIV-protease.
`CC1(C)O[C@@H]2[C@@H](O1)[C@@H](Cc1ccccc1)N(CC#Cc1cccnc1)C(=O)N(CC#Cc1cccnc1)[C@@H]2Cc1ccccc1` returned a Ki of at least 1 µM.
Take `CCN(CC)CC#CCN1C(=O)N(CC#CCN(CC)CC)[C@H](Cc2ccccc2)[C@H](O)[C@@H](O)[C@H]1Cc1ccccc1`: the Ki was at least 1 µM.
`O=C1N(CC#Cc2cnc3ccccc3c2)[C@H](Cc2ccccc2)[C@H](O)[C@@H](O)[C@@H](Cc2ccccc2)N1CC#Cc1cnc2ccccc2c1` came in with a Ki of at least 1 µM.
`O=C1N(CC#Cc2cn[nH]c2)[C@H](Cc2ccccc2)[C@H](O)[C@@H](O)[C@@H](Cc2ccccc2)N1CC#Cc1cn[nH]c1` registered a Ki of at least 1 µM.
As for `CC1(C)O[C@@H]2[C@@H](O1)[C@@H](Cc1ccccc1)N(CC#Cc1ccsc1)C(=O)N(CC#Cc1ccsc1)[C@@H]2Cc1ccccc1`, the Ki is at least 1 µM.
The compound `CC1(C)O[C@@H]2[C@@H](O1)[C@@H](Cc1ccccc1)N(CC#Cc1cnc3ccccc3c1)C(=O)N(CC#Cc1cnc3ccccc3c1)[C@@H]2Cc1ccccc1` gave a Ki of at least 1 µM.
Take `CC1(C)O[C@@H]2[C@@H](O1)[C@@H](Cc1ccccc1)N(CC#Cc1cn[nH]c1)C(=O)N(CC#Cc1cn[nH]c1)[C@@H]2Cc1ccccc1`: the Ki was at least 1 µM.
As for `O=C1N(CC#Cc2cncnc2)[C@H](Cc2ccccc2)[C@H](O)[C@@H](O)[C@@H](Cc2ccccc2)N1CC#Cc1cncnc1`, the Ki was at least 1 µM.
As for `O=C1N(CC#Cc2ccsc2)[C@H](Cc2ccccc2)[C@H](O)[C@@H](O)[C@@H](Cc2ccccc2)N1CC#Cc1ccsc1`, the Ki was at least 1 µM.
With `C#CCN1C(=O)N(CC#C)[C@H](Cc2ccccc2)[C@@H]2OC(C)(C)O[C@H]2[C@H]1Cc1ccccc1`, the inhibition constant (Ki) was determined as 0.022 µM.
Still for that read-out and setting: the result for `O=C1N(CC#Cc2cccs2)[C@H](Cc2ccccc2)[C@H](O)[C@@H](O)[C@@H](Cc2ccccc2)N1CC#Cc1cccs1` reads at least 1 µM; that for `COCCOCn1cc(C#CCN2C(=O)N(CC#Cc3cnn(COCCOC)c3)[C@H](Cc3ccccc3)[C@H](O)[C@@H](O)[C@H]2Cc2ccccc2)cn1`, at least 1 µM; that for `CC1(C)O[C@@H]2[C@@H](O1)[C@@H](Cc1ccccc1)N(CC#Cc1cccs1)C(=O)N(CC#Cc1cccs1)[C@@H]2Cc1ccccc1`, at least 1 µM.
On the same count and under the same terms, the result for `CC(C)N(CC#CCN1C(=O)N(CC#CCN(C(C)C)C(C)C)[C@H](Cc2ccccc2)[C@H](O)[C@@H](O)[C@H]1Cc1ccccc1)C(C)C` reads at least 1 µM.
On the same count and under the same terms, under `CC(C)(C)OC(=O)n1cc(C#CCN2C(=O)N(CC#Cc3cnn(C(=O)OC(C)(C)C)c3)[C@H](Cc3ccccc3)[C@@H]3OC(C)(C)O[C@H]3[C@H]2Cc2ccccc2)cn1` stands at least 1 µM.
For `CC(C)(C)OC(=O)n1cc(C#CCN2C(=O)N(CC#Cc3cnn(C(=O)OC(C)(C)C)c3)[C@H](Cc3ccccc3)[C@H](O)[C@@H](O)[C@H]2Cc2ccccc2)cn1`, the Ki is at least 1 µM.
The compound `O=C1N(CC#CCN2CCOCC2)[C@H](Cc2ccccc2)[C@H](O)[C@@H](O)[C@@H](Cc2ccccc2)N1CC#CCN1CCOCC1` yielded a Ki of at least 1 µM.
`O=C1N(CC#Cc2cc3ccccc3cn2)[C@H](Cc2ccccc2)[C@H](O)[C@@H](O)[C@@H](Cc2ccccc2)N1CC#Cc1cc2ccccc2cn1` displayed an inhibition constant (Ki) of at least 1 µM.
Still for that read-out and setting: the result for `CC(C)(C)OC(=O)C1CCCN1CC#CCN1C(=O)N(CC#CCN2CCCC2C(=O)OC(C)(C)C)[C@H](Cc2ccccc2)[C@H](O)[C@@H](O)[C@H]1Cc1ccccc1` (stereo partly drawn) reads at least 1 µM; that for `O=C1N(CC#Cc2cccnc2)[C@H](Cc2ccccc2)[C@H](O)[C@@H](O)[C@@H](Cc2ccccc2)N1CC#Cc1cccnc1`, at least 1 µM; that for `O=C1N(CC#CCN2CCCCC2)[C@H](Cc2ccccc2)[C@H](O)[C@@H](O)[C@@H](Cc2ccccc2)N1CC#CCN1CCCCC1`, at least 1 µM.
Same read-out and setting: the result for `CC1(C)O[C@@H]2[C@@H](O1)[C@@H](Cc1ccccc1)N(CC#Cc1cc3ccccc3cn1)C(=O)N(CC#Cc1cc3ccccc3cn1)[C@@H]2Cc1ccccc1` reads at least 1 µM; that for `CC1(C)O[C@@H]2[C@@H](O1)[C@@H](Cc1ccccc1)N(CC#Cc1cncnc1)C(=O)N(CC#Cc1cncnc1)[C@@H]2Cc1ccccc1`, at least 1 µM.
Still for that read-out and setting: the result for `COCCOCn1cc(C#CCN2C(=O)N(CC#Cc3cnn(COCCOC)c3)[C@H](Cc3ccccc3)[C@@H]3OC(C)(C)O[C@H]3[C@H]2Cc2ccccc2)cn1` reads at least 1 µM.
